Data as given in US12728116B2, “Methods of treating multiple sclerosis” (Vanda Pharmaceuticals Inc., priority 2021, dated 2026).
Values joined by “and” are separate entries in the source; they are usually repeats but may differ in a detail not shown here. Identical values can stand only once.

Tests used:
Type in all cases: in vivo, human
[1] = tested on: adult subjects with relapsing MS; experiment: 12-lead ECG heart rate and first-dose effects on Day 1; settings: for Mean heart rate change compared to pre-dose at 2-hours post dose / Subjects with asymptomatic post-dose HR≤40 bpm: Day 1; for Mean heart rate change compared to pre-dose at 2-hours post dose: 12-lead ECG, Safety Set; for Subjects with asymptomatic post-dose HR≤40 bpm: all with pre-treatment HR <55 bpm
Description: As per up-titration regimen, the dose of ponesimod on Day 1 is 2 mg.

[2] = tested on: adult subjects with relapsing MS; experiment: Combined unique active lesions (CUAL) on brain MRI from baseline to Week 108; settings: for CUAL mean estimate (Lesions per year), negative binomial regression: ponesimod 20 mg, teriflunomide 14 mg; for Total number of lesions (CUAL): total time 1072 / 1067 years; for Raw mean lesions/year (CUAL): baseline to week 108
Description: Secondary efficacy variables and testing strategy: Four secondary efficacy endpoints were analyzed as per the statistical testing strategy outlined in FIG. 1. • Change from baseline to Week 108 in fatigue-related symptoms as measured by the symptoms domain of the FSIQ-RMS patient-reported outcome [Fatigue] • Cumulative number of combined unique active lesions from baseline to Week 108 on brain MRI [CUALs] • Time to first 12-week confirmed disability accumulation (CDA) from baseline to EOS on Expanded Disability Status Scale (EDSS) [12-week CDA] • Time to first 24-week CDA from baseline to EOS on EDSS [24-week CDA]
CUAL are new Gd+T1 lesions plus new or enlarging T2 lesions (without double-counting of lesions).
MRI scans were performed at Visits 2 (Baseline). 10 (Week 60), and 14 (EOT) and at any unscheduled visit (U1, U2, etc.). If applicable, MRI scans also were performed at the corresponding visits in the PTOP (Visits 10A and 14A). Testing at all visits were performed up to 7 days prior to or after the visit date.
T1-weighted imaging before and after i.v. administration of 0.1 mmol/kg body weight (=0.2 mL/kg) of Gd as well as PD-T2-weighted imaging was performed. Gd may cause nausea and vomiting and in very rare cases allergic reactions that could require immediate anti-anaphylactic therapy (such as steroids, epinephrine/adrenaline, etc.).
ARR differences and mean number of CUALs were examined using a negative binomial regression model with adjusting for the log time in the study (in years) as an offset.

[3] = tested on: adult subjects with relapsing MS; experiment: Treatment-emergent adverse events (Safety Set); settings: for AESI effect on heart rate and rhythm (including hypotension) on Day 1: subjects with at least one AE, %: Day 1 (ponesimod dose 2 mg); for TEAE ALT increased, subjects / TEAE headache, subjects / TEAE nasopharyngitis, subjects / TEAE upper respiratory tract infection, subjects: ponesimod 20 mg, teriflunomide 14 mg; for AESI category Effect on heart rate and rhythm (including aypotension), % / AESI category Hepatobiliary disorders/Liver enzyme abnormality, % / AESI category Herpetic infection, % / AESI category Hypertension, % / AESI category Macular edema, % / AESI category Non-skin malignancy, % / AESI category Pulmonary events, % / AESI category Seizure, % / AESI category Skin malignancy, % / AESI category Infection, %: treatment-emergent AESI; for AESI category Infection, %: only if reported as serious or severe;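 on all read-outs here: safety Set comprises every randomized subject given one or more doses, analysed by the treatment actually received rather than the assigned arm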
Description: The Safety Set (SAF) included all randomized subjects who received at least one dose of study treatment. Subjects were analyzed based on actual treatment taken, not randomized treatment.

[4] = baseline to Week 108, Full Analysis Set
[5] = Safety Set, listed as ponesimod
[6] = treatment-emergent, Safety Set, listed as ponesimod
[7] = Safety Set, listed as teriflunomide
[8] = treatment-emergent, Safety Set, listed as teriflunomide

CCC/N=C1\S/C(=C\c2ccc(OC[C@H](O)CO)c(Cl)c2)C(=O)N1c1ccccc1C [Ponesimod, (R)-5-[3-chloro-4-(2,3-dihydroxy-propoxy)-benz[Z]ylidene]-2-([Z]-propylimino)-3-o-tolyl-thiazolidin-4-one]
2nd or higher degree AV block ([1]; Day 1, first dose): No 2nd or higher degree AV block was observed
Subjects meeting discharge criteria at 4 hours post-dose ([1]; Day 1, first dose): ca. 99%
ECG HR effect: time of nadir post-dose ([1]; Day 1, ponesimod 2 mg): 2 h
Mean heart rate change compared to pre-dose at 2-hours post dose [1]: −8.7 bpm
Subjects with asymptomatic post-dose HR≤40 bpm [1]: 3
CUAL treatment effect (Rate Ratio), ponesimod vs. teriflunomide [2, 4]: 0.44 and 0.444
CUAL mean estimate (Lesions per year), negative binomial regression [2, 4]: 1.405 Lesions per year
Total number of lesions (CUAL) ([2]; baseline to Week 108): 1671
Raw mean lesions/year (CUAL) [2]: 1.559 lesions/year
CUALs, benefit compared with teriflunomide in subgroups ([2]; patients with EDSS≤3 and treatment-naïve patients): benefited from ponesimod compared with teriflunomide
Reduction of number of CUALs between baseline and week 108 compared to teriflunomide ([2]; ponesimod 20 mg vs teriflunomide 14 mg): 56%
AESI effect on heart rate and rhythm (including hypotension) on Day 1: subjects with at least one AE, % ([3]; Safety Set): (2.1) %
AESI effect on heart rate and rhythm (including hypotension) on Day 1: subjects with at least one AE, % [3, 5]: 2.1%
Day 1 AESI PT Atrioventricular block first degree, % ([3]; Day 1, Safety Set): (0.5) %
Day 1 AESI PT Bradycardia, % ([3]; Day 1, Safety Set): (0.7) %
Day 1 AESI PT Bundle branch block left, % ([3]; Day 1, Safety Set): (0.2) %
Day 1 AESI PT Bundle branch block right, % ([3]; Day 1, Safety Set): (0.2) %
Day 1 AESI PT Defect conduction intraventricular, % ([3]; Day 1, Safety Set): (0.4) %
Day 1 AESI PT Sinus arrhythmia, % ([3]; Day 1, Safety Set): (0.2) %
Day 1 AESI PT Sinus bradycardia, % ([3]; Day 1, Safety Set): (0.2) %
TEAE ALT increased, subjects [3]: 19.5%
TEAE headache, subjects [3]: 11.5%
TEAE nasopharyngitis, subjects [3]: 19.3%
TEAE upper respiratory tract infection, subjects [3]: 10.6%
AESI category Effect on heart rate and rhythm (including aypotension), % ([3]; Safety Set): (5.1) %
AESI category Hepatobiliary disorders/Liver enzyme abnormality, % ([3]; Safety Set): (25.7) %
AESI category Herpetic infection, % ([3]; Safety Set): (4.8) %
AESI category Hypertension, % ([3]; Safety Set): (10.1) %
AESI category Macular edema, % ([3]; Safety Set): (1.1) %
AESI category Non-skin malignancy, % ([3]; Safety Set): (0.2) %
AESI category Pulmonary events, % ([3]; Safety Set): (8.0) %
AESI category Seizure, % ([3]; Safety Set): (1.4) %
AESI category Skin malignancy, % ([3]; Safety Set): (0.9) %
AESI category Hepatobiliary disorders/Liver enzyme abnormality, % [3, 5]: 25.7%
AESI category Hypertension, % [3, 5]: 10.1%
AESI category Pulmonary events, % [3, 5]: 8.0%
AESI category Infection, % ([3]; Safety Set): (1.6) %
AEs leading to premature discontinuation, SOC Blood and lymphatic system disorders, % ([3]; treatment-emergent, Safety Set): (0.5) %
AEs leading to premature discontinuation, SOC Cardiac disorders, % ([3]; treatment-emergent, Safety Set): (0.2) %
AEs leading to premature discontinuation, SOC Eye disorders, % ([3]; treatment-emergent, Safety Set): (0.9) %
AEs leading to premature discontinuation, SOC Gastrointestinal disorders, % ([3]; treatment-emergent, Safety Set): (0.7) %
AEs leading to premature discontinuation, SOC General disorders and administration site conditions, % ([3]; treatment-emergent, Safety Set): (0.5) %
AEs leading to premature discontinuation, SOC Hepatobiliary disorders, % ([3]; treatment-emergent, Safety Set): (0.5) %
AEs leading to premature discontinuation, SOC Investigations, % ([3]; treatment-emergent, Safety Set): (2.1) %
AEs leading to premature discontinuation, SOC Musculoskeletal and connective tissue disorders, % ([3]; treatment-emergent, Safety Set): (0.2) %
AEs leading to premature discontinuation, SOC Neoplasms benign, malignant and unspecified (incl cysts and polyps), % ([3]; treatment-emergent, Safety Set): (0.2) %
AEs leading to premature discontinuation, SOC Nervous system disorders, % ([3]; treatment-emergent, Safety Set): (0.4) %
AEs leading to premature discontinuation, SOC Pregnancy, puerperium and perinatal conditions, % ([3]; treatment-emergent, Safety Set): (0.5) %
AEs leading to premature discontinuation, SOC Psychiatric disorders, % ([3]; treatment-emergent, Safety Set): (0.2) %
AEs leading to premature discontinuation, SOC Respiratory, thoracic and mediastinal disorders, % ([3]; treatment-emergent, Safety Set): (1.2) %
AEs leading to premature discontinuation, SOC Skin and subcutaneous tissue disorders, % ([3]; treatment-emergent, Safety Set): (0.2) %
AEs leading to premature discontinuation, SOC Social circumstances, % ([3]; treatment-emergent, Safety Set): (0.4) %
AEs leading to premature discontinuation, SOC Vascular disorders, % ([3]; treatment-emergent, Safety Set): (0.5) %
Subjects with at least one AE leading to study drug discontinuation, % ([3]; treatment-emergent, Safety Set): (8.7) %
Subjects with at least one AE, % ([3]; treatment-emergent, Safety Set): (88.8) %
Subjects with at least one Drug-Related AE, % ([3]; treatment-emergent, Safety Set): (49.2) %
Subjects with at least one Serious AE, % ([3]; treatment-emergent, Safety Set): (8.7) %
Subjects with at least one Severe AE, % ([3]; treatment-emergent, Safety Set): (6.9) %
Subjects with at least one AE leading to study drug discontinuation, % [3, 6]: 8.7%
Subjects with at least one AE, % [3, 6]: 88.8%
Subjects with at least one Serious AE, % [3, 6]: 8.7%

C/C(O)=C(\C#N)C(=O)Nc1ccc(C(F)(F)F)cc1 [Teriflunomide, reference compound]
Mean heart rate change compared to pre-dose at 2-hours post dose [1]: −1.7 bpm
Subjects with asymptomatic post-dose HR≤40 bpm [1]: none
CUAL mean estimate (Lesions per year), negative binomial regression [2, 4]: 3.164 Lesions per year
Total number of lesions (CUAL) ([2]; baseline to Week 108): 3714
Raw mean lesions/year (CUAL) [2]: 3.481 lesions/year
AESI effect on heart rate and rhythm (including hypotension) on Day 1: subjects with at least one AE, % ([3]; Safety Set): (0.4) %
AESI effect on heart rate and rhythm (including hypotension) on Day 1: subjects with at least one AE, % [3, 7]: 0.4%
Day 1 AESI PT Electrocardiogram QT prolonged, % ([3]; Day 1, Safety Set): (0.2) %
Day 1 AESI PT Presyncope, % ([3]; Day 1, Safety Set): (0.2) %
TEAE ALT increased, subjects [3]: 9.4%
TEAE headache, subjects [3]: 12.7%
TEAE nasopharyngitis, subjects [3]: 16.8%
TEAE upper respiratory tract infection, subjects [3]: 10.4%
AESI category Effect on heart rate and rhythm (including aypotension), % ([3]; Safety Set): (4.2) %
AESI category Hepatobiliary disorders/Liver enzyme abnormality, % ([3]; Safety Set): (14.5) %
AESI category Herpetic infection, % ([3]; Safety Set): (4.8) %
AESI category Hypertension, % ([3]; Safety Set): (9.0) %
AESI category Macular edema, % ([3]; Safety Set): (0.2) %
AESI category Non-skin malignancy, % ([3]; Safety Set): (0.2) %
AESI category Pulmonary events, % ([3]; Safety Set): (2.7) %
AESI category Seizure, % ([3]; Safety Set): (0.2) %
AESI category Skin malignancy, % ([3]; Safety Set): (0.2) %
AESI category Hepatobiliary disorders/Liver enzyme abnormality, % [3, 7]: 14.5%
AESI category Hypertension, % [3, 7]: 9.0%
AESI category Pulmonary events, % [3, 7]: 2.7%
AESI category Infection, % ([3]; Safety Set): (0.9) %
AEs leading to premature discontinuation, SOC Blood and lymphatic system disorders, % ([3]; treatment-emergent, Safety Set): (0.4) %
AEs leading to premature discontinuation, SOC Cardiac disorders, % ([3]; treatment-emergent, Safety Set): (0.4) %
AEs leading to premature discontinuation, SOC Gastrointestinal disorders, % ([3]; treatment-emergent, Safety Set): (0.7) %
AEs leading to premature discontinuation, SOC General disorders and administration site conditions, % ([3]; treatment-emergent, Safety Set): (0.4) %
AEs leading to premature discontinuation, SOC Hepatobiliary disorders, % ([3]; treatment-emergent, Safety Set): (0.4) %
AEs leading to premature discontinuation, SOC Investigations, % ([3]; treatment-emergent, Safety Set): (1.8) %
AEs leading to premature discontinuation, SOC Musculoskeletal and connective tissue disorders, % ([3]; treatment-emergent, Safety Set): (0.2) %
AEs leading to premature discontinuation, SOC Neoplasms benign, malignant and unspecified (incl cysts and polyps), % ([3]; treatment-emergent, Safety Set): (0.2) %
AEs leading to premature discontinuation, SOC Nervous system disorders, % ([3]; treatment-emergent, Safety Set): (0.7) %
AEs leading to premature discontinuation, SOC Pregnancy, puerperium and perinatal conditions, % ([3]; treatment-emergent, Safety Set): (0.5) %
AEs leading to premature discontinuation, SOC Psychiatric disorders, % ([3]; treatment-emergent, Safety Set): (0.2) %
AEs leading to premature discontinuation, SOC Reproductive system and breast disorders, % ([3]; treatment-emergent, Safety Set): (0.2) %
AEs leading to premature discontinuation, SOC Skin and subcutaneous tissue disorders, % ([3]; treatment-emergent, Safety Set): (0.4) %
AEs leading to premature discontinuation, SOC Social circumstances, % ([3]; treatment-emergent, Safety Set): (0.2) %
AEs leading to premature discontinuation, SOC Surgical and medical procedures, % ([3]; treatment-emergent, Safety Set): (0.2) %
Subjects with at least one AE leading to study drug discontinuation, % ([3]; treatment-emergent, Safety Set): (6.0) %
Subjects with at least one AE, % ([3]; treatment-emergent, Safety Set): (88.2) %
Subjects with at least one Drug-Related AE, % ([3]; treatment-emergent, Safety Set): (42.0) %
Subjects with at least one Fatal AE, % ([3]; treatment-emergent, Safety Set): (0.4) %
Subjects with at least one Serious AE, % ([3]; treatment-emergent, Safety Set): (8.1) %
Subjects with at least one Severe AE, % ([3]; treatment-emergent, Safety Set): (4.6) %
Subjects with at least one AE leading to study drug discontinuation, % [3, 8]: 6.0%
Subjects with at least one AE, % [3, 8]: 88.2%
Subjects with at least one Serious AE, % [3, 8]: 8.1%
